The values that follow are results of earlier work, collected in patent US9272011B2, “Pharmaceutical composition for treating urinary incontinence and enuresis” (LABORATEC, S.L., priority 2012, dated 2016).

This series has as its system enuresis. Conditions: enuresis therapy, literature studies.

In the case of `CN(C)CCCN1c2ccccc2CCc2ccccc21` [Imipramine], the response rate result is “approximately 50%”.
